Paper PMC5607459, “Discovery of a Potent Inhibitor Class with High Selectivity toward Clostridial Collagenases” (Journal of the American Chemical Society, 2017)
Entries after “also recorded” stand apart in the source; their conditions may differ. Where two headings read alike, the source gives them in different places. Non-standard residues stand in square brackets, D forms with d. Residues, ends and D or L forms follow the SMILES beside them. *: point of attachment. Dnp = O=[N+]([O-])c1ccc(*)c([N+](=O)[O-])c1; Mca = COc1ccc2c(CC(=O)*)cc(=O)oc2c1; Dap = NC[C@H](N)C(=O)O

Tests used:
[1] = target: T1, ColH-PD (Hathewaya histolytica, UniProt Q46085); assay: biochemical
[2] = target: T1, ColH-PD
[3] = physchem; conditions: buffer, pH 7.5
[4] = target: T1, ColH-PD; remark: listed apart in the source
[5] = 10 mM Hepes pH 7.4 (10% methanol) at 22.5°C, experimental time frame
[6] = system: MMP-1, -2, -3, -7, -8, and -14; assay: Human MMP inhibition assay, statements on the whole panel; type: biochemical; conditions: for inhibition of the tested MMPs: tested at 100 µM
[7] = system: HEP G2 cells; conditions: human
[8] = target: T1, ColH-PD; assay: biochemical; type: binding, Clostridium histolyticum
[9] = target: ColG-CU (Hathewaya histolytica, UniProt Q9X721); assay: biochemical; design: species or system C. histolyticum; conditions: for remaining activity at 100 µM: read-out: residual activity of ColG
[10] = target: ColQ1-CU (Bacillus cereus, UniProt B9J3S4); assay: biochemical; design: species or system Bacillus cereus strain Q1; conditions: for remaining activity at 100 µM: read-out: residual activity of ColQ1
[11] = target: ColT-PD (Clostridium tetani, UniProt Q899Y1); assay: biochemical; design: species or system C. tetani; conditions: for remaining activity at 100 µM: read-out: residual activity of ColT
[12] = system: LasB; type: biochemical, P. aeruginosa
[13] = target: catalytic domain of MMP-7 (Homo sapiens, UniProt P09237); assay: biochemical
[14] = system: HEP G2 cells; assay: Cytotoxicity assay; conditions: 48 h
[15] = target: amine-coupled peptidase domain of ColH (ColH-PD) (Hathewaya histolytica, UniProt Q46085)
[16] = target: T2, catalytic domain of MMP-2 (Homo sapiens, UniProt P08253); assay: Human MMP inhibition assay, MMP-2; type: biochemical; conditions: 100 μM compound
T2 construct: The catalytic domains of MMP-1, -2, -3, -7, -8 and -14; purchased AnaSpec (Fremont, CA, USA)
T2 sequence (P08253 110-465 limits assumed): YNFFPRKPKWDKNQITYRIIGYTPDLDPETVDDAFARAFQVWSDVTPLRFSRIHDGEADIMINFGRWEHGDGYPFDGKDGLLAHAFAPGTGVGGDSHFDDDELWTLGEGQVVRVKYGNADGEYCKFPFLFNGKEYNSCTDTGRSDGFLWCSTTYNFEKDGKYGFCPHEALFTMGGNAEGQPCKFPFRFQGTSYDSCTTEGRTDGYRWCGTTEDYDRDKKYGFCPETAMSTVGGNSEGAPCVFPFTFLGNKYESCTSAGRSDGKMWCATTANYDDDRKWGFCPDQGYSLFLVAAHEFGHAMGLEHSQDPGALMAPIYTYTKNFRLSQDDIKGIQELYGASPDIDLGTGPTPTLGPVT

ColT-PD, sequence (Q899Y1 340-731 limits assumed): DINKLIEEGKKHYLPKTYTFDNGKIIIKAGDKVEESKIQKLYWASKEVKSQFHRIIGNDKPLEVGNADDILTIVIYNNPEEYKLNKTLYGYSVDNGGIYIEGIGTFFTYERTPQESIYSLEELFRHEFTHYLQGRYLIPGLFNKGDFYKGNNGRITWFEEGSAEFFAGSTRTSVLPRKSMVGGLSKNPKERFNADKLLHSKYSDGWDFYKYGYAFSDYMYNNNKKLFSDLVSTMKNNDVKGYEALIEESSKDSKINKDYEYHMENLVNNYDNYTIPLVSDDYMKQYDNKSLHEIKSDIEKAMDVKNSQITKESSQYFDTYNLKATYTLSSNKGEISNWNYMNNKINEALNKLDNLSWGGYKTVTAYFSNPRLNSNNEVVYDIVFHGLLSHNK
T1 sequence (Q46085 331-721 limits assumed): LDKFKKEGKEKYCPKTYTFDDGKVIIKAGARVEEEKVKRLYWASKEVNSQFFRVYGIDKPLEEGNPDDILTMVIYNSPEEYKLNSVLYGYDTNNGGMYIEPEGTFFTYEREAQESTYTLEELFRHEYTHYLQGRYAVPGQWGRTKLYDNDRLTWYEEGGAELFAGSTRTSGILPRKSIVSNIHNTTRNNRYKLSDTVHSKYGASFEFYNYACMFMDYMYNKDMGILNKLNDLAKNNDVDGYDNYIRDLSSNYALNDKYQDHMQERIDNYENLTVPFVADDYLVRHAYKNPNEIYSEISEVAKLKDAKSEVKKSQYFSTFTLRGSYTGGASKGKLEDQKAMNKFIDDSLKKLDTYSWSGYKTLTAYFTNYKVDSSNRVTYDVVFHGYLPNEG
ColG-CU, sequence (Q9X721 111-786): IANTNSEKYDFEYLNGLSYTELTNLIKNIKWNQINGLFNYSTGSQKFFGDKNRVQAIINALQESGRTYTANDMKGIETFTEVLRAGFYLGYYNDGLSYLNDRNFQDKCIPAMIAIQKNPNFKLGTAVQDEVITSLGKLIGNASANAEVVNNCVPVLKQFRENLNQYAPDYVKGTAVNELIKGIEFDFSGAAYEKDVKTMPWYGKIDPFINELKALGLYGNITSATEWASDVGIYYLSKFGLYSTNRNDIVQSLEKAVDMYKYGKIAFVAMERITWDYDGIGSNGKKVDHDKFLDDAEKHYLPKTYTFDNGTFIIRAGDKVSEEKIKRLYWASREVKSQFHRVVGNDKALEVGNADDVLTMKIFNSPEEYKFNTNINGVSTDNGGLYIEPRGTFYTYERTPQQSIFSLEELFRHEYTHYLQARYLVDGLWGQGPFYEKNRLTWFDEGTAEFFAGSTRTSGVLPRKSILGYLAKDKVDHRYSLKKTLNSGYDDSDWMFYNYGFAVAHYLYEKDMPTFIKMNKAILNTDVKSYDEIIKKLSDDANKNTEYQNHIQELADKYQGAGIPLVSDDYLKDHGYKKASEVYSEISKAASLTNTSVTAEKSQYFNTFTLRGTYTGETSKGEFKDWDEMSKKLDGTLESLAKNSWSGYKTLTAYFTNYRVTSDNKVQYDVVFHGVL
ColQ1-CU, sequence (B9J3S4 94-765 limits assumed): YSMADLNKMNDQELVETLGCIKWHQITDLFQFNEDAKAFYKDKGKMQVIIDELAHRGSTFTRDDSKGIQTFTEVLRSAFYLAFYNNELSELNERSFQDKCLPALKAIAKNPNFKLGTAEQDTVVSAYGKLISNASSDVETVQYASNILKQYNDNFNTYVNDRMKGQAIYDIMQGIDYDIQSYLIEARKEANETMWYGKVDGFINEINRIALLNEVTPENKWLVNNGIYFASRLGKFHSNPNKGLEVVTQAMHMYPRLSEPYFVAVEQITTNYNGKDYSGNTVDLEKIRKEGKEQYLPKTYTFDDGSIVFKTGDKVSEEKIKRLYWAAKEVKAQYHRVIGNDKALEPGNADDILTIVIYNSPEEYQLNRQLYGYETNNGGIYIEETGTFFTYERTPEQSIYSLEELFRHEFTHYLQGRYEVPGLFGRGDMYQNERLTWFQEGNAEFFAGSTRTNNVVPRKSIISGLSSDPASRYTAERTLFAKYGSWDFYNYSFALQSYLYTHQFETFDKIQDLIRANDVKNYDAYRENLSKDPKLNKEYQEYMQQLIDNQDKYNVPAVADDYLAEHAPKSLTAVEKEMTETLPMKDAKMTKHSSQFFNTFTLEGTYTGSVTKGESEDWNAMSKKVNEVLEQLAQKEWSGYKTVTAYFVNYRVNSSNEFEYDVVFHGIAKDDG
amine-coupled peptidase domain of ColH (ColH-PD), sequence (Q46085 331-721 limits assumed): as the sequence (Q46085 331-721 limits assumed) above
catalytic domain of MMP-7, sequence (P09237 95-267): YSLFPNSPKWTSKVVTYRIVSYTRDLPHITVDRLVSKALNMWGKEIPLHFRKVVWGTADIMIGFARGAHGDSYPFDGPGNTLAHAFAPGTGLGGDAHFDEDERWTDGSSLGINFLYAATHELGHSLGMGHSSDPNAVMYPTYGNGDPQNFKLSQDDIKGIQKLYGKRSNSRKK

For `NC(=O)SCC(=O)Nc1cccc(F)c1` [Compound 10], the IC50 [1] was 23000 ± 3000 nM.

In the case of “isoamylphosphonyl-Gly-Pro-Ala [reference compound]”, the “inhibition of ColH-PD” value ([2]; 40 µM) is reported as 81 ± 1%.

`NC(=O)SCC(=O)Nc1ccccc1Cl` [Compound 12] gave a half-life [3] of 20.6 ± 0.9 min and an IC50 [1] of 31000 ± 7000 nM.

`NC(=O)SCC(=O)Nc1cccc(Cl)c1` [Compound 9] showed an IC50 [1] of 19000 ± 3000 nM.

Compound `COc1ccc2c(CC(=O)N[C@@H](C)C(=O)NCC(=O)N3CCC[C@H]3C(=O)N3CCC[C@H]3C(=O)NCC(=O)N3CCC[C@H]3C(=O)N[C@@H](CNc3ccc([N+](=O)[O-])cc3[N+](=O)[O-])C(=O)NCC(=O)N[C@@H](CCCNC(=N)N)C(N)=O)cc(=O)oc2c1` [Mca-Ala-Gly-Pro-Pro-Gly-Pro-Dpa-Gly-Arg-NH2] (Mca-AGPPGP[Dap](Dnp)GR-NH2) has a Km [4] of 62 ± 8 µM.

For `Cc1ccc(NC(=O)CSC(N)=O)cc1` [Compound 6], the “decreased IC50 compared to compound 2” value [2] was 16 fold and the IC50 [1] was 120 ± 10 nM.

For `CCN(CC)C(=S)SCC(=O)Nc1ccc(C(C)=O)cc1` [Compound 21], the “hydrolysis to the corresponding free thiol 13” value [5] was “no hydrolysis” and the inhibition at 100 µM ([1]; read-out: Inhibition at 100 μM (%)) was 12 ± 3%.

For `Cc1ccc(NC(=O)CSC(N)=O)cc1C` [Compound 2], the IC50 [1] was 1900 ± 300 nM and the inhibition at 40 µM ([1]; read-out: inhibition of ColH-PD) was 82 ± 3%.

Work on `NC(=O)SCC(=O)Nc1ccccc1` [Compound 1] yielded an IC50 [1] of 25000 ± 6000 nM.

With `COC(=O)c1ccc(NC(=O)CSC(N)=O)cc1` [Compound 4] the IC50 [1] was 44 ± 7 nM.

With `O=C(CS)Nc1ccc(Cl)cc1` [Compound 14] the “selectivity against MMPs” value [6] was “similarly high selectivity against MMPs”, the “reduction of viability (%)” value [7] was 28 ± 12% and the Kd [8] was 360 ± 38 nM. For the same compound, the “N (stoichiometry)” value [8] was 0.48 ± 0.03, the ΔG [8] was “–8.8 ± 0.1 kcal mol^–1” and the ΔH [8] was “–15.4 ± 0.3 kcal mol^–1”. For the same compound, the “–TΔS” value [8] was 6.6 ± 0.4 kcal mol^–1 and the IC50 [1] was 210 ± 10 nM.

Work on `O=C(CS)Nc1ccccc1Cl` [Compound 15] yielded an IC50 [1] of 40000 ± 9000 nM.

In the case of `NC(=O)SCC(=O)Nc1ccc(Cl)cc1` [Compound 7], the remaining activity at 100 µM [9] is reported as ≤ 5%, the “selectivity for ColH over MMPs” value [6] is reported as “more than 1000 fold” and the “inhibition of the tested MMPs” value [6] is reported as “no or negligible inhibition”. The half-life [3] was 26.8 ± 1.4 min, the remaining activity at 100 µM [10] was ≤ 5% and the “decrease in IC50 compared to meta-chloro-substituted counterpart 9” value [2] was 100 fold. For the same compound, the remaining activity at 100 µM [11] was ≤ 5%, the Kd [8] was 309 ± 45 nM and the “N (stoichiometry)” value [8] was 0.54 ± 0.05. The ΔG [8] was “–8.9 ± 0.1 kcal mol^–1”, the ΔH [8] was “–12.7 ± 1.2 kcal mol^–1” and the “–TΔS” value [8] was 3.8 ± 1.3 kcal mol^–1. It also gave an IC50 [1] of 190 ± 20 nM.

`CCOc1ccc(NC(=O)CSC(N)=O)cc1` [Compound 8] showed an IC50 [1] of 190 ± 30 nM.

With `CC(=O)c1ccc(NC(=O)CS)cc1` [Compound 13] the “selectivity against MMPs” value [6] was “similarly high selectivity against MMPs”, the “reduction of viability (%)” value [7] was 17 ± 12% and the “lower activity toward LasB compared to ColH” value [12] was “more than 1000 fold”.

With `CCN(CC)C(=S)SCC(=O)Nc1ccc(F)cc1` [Compound 20] the “Inhibition at 100 μM (%)” value [2] was “no inhibition”.

In the case of `CNC(=O)[C@H](Cc1ccccc1)NC(=O)[C@H](CC(C)C)[C@H](CSc1cccs1)C(=O)NO` [batimastat, reference compound], the “inhibition of ColG-CU” value [9] is reported as “inhibited”, the IC50 ([6]; MMP-1, -2, -3, -7, -8, -14, read-out: IC50 values for all of these MMPs) is reported as < 10 nM and the “reduction of viability (%)” value ([7]; 48 h, 100 μM) is reported as 13 ± 7%. The IC50 [13] was 7 ± 0.2 nM, the “inhibition of ColQ1-CU” value [10] was “inhibited” and the “inhibition of ColH-PD” value [2] was “inhibited”. The “inhibition of ColT-PD” value [11] was “inhibited”.

For `COc1cccc2c1C(=O)c1c(O)c3c(c(O)c1C2=O)C[C@@](O)(C(=O)CO)C[C@@H]3O[C@H]1C[C@H](N)[C@H](O)[C@H](C)O1` [doxorubicin], the “reduction of viability (%)” value ([14]; 1 μM) was 50 ± 5%.

For `CO[C@H]1/C=C/O[C@@]2(C)Oc3c(C)c(O)c4c(O)c(c(/C=N/N5CCN(C)CC5)c(O)c4c3C2=O)NC(=O)/C(C)=C\C=C\[C@H](C)[C@H](O)[C@@H](C)[C@@H](O)[C@@H](C)[C@H](OC(C)=O)[C@@H]1C` [rifampicin], the “reduction of viability (%)” value ([14]; 100 μM) was 29 ± 5%.

With “N-(3-[2-furyl]acryloyl)-L-leucyl-glycyl-L-prolyl-L-alanine [FALGPA]” the “MW-normalized SPR response” value [15] was 35 μ-refractive index units.

For `CC(=O)c1ccc(NC(=O)CSC(N)=O)cc1` [Compound 3], the inhibition at 100 µM [16] was 25%, the remaining activity at 100 µM [9] was ≤ 5% and the “selectivity for ColH over MMPs” value [6] was “more than 1000 fold”. For the same compound, the “inhibition of the tested MMPs” value [6] was “no or negligible inhibition”, the remaining activity at 100 µM [10] was ≤ 5% and the remaining activity at 100 µM [11] was ≤ 5%. For the same compound, the remaining activity at 100 µM ([1]; read-out: residual activity of ColH-PD) was < 10%.

In the case of `NC(=O)CCC(=O)Nc1ccccc1` [Compound 16], the “inhibitory activity toward ColH-PD” value [2] is reported as “devoid of any activity; also recorded: no inhibition”.

For `CCN(CC)C(=S)SCC(=O)Nc1ccc(Br)cc1` [Compound 18], the “Inhibition at 100 μM (%)” value [2] was “no inhibition”.

With `CCN(CC)C(=S)SCC(=O)Nc1ccc(C(C)C)cc1` [Compound 19] the “Inhibition at 100 μM (%)” value [2] was “no inhibition”.

With `CCOc1ccc(NC(=O)CSC(=S)N(CC)CC)cc1` [Compound 17] the “Inhibition at 100 μM (%)” value [2] was “no inhibition”.

Compound `COc1ccc(NC(=O)CSC(N)=O)cc1` [Compound 5] has an IC50 [1] of 71 ± 9 nM.
